Source: patent US11096985B2, “Antimicrobial peptides, their variants and uses” (priority 2015, dated 2021)
Where a SMILES comes first, the peptide text is derived from it. [ ]: non-standard residue; d: D form.

How the values were obtained:
S. aureus COL (MRSA) = assay: Synergistic activity with Ertapenem (4 μg/ml) against MRSA, MIC; assay type: cell-based, Staphylococcus aureus; conditions: Ertapenem 4 μg/ml; D-form
Method in brief: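 Broth microdilution in MH broth with 5.0×10^5 cfu/ml inoculum, 37° C for 20–24 h. MIC was the lowest concentration without visible growth (range 0.125–128 μg/ml). L- and D-form peptides were tested on S. aureus RN4220 and COL (MRSA), alone and with Ertapenem at 4 μg/ml.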

[1] = system: Escherichia coli (ATCC 25922); assay type: cell-based; conditions: Peptides 50 μg; Gentamycin 5 μg; diameter including the wells
Protocol: (§1) The radial diffusion assay (RDA) was carried out as described by Andersen et al. (2010). Briefly, 30 ml of 1/10 Muller-Hinton broth (MHB) supplemented with 1% agarose and 5.0×10^5 CFU/ml S. aureus or E. coli or K. pneumoniae, P. aeruginosa cells was poured into a single-well omnitray (Nunc) and overlaid with a TSP 96-well plate. […] The peptides were also tested against Fusarium oxysporum and Verticillium dahliae, for which 1/3 potato dextrose agarose was used. To test the synergistic effect of peptides, each peptide was mixed in equimolar concentrations. Mix1 (met1-12), Mix2 (met3, 4 and 5), Mix3 (met 8, 9 and 10), Mix 4 (met11, 12) and Mix5 (8, 9, 10, 11, 12) were prepared and tested against E. coli and S. aureus. Gentamicin and vancomycin were included as positive controls for bacteria and amphotericin B was used as the control for fungi.

[2] = system: Staphylococcus aureus (ATCC 25923); assay type: cell-based; conditions: Peptides 50 μg; Gentamycin 5 μg; diameter including the wells
Protocol: as §1

[3] = system: Klebsiella pneumoniae (ATCC 10031); assay type: cell-based; conditions: Peptides 50 μg; Gentamycin 5 μg; diameter including the wells
Protocol: as §1

[4] = system: Escherichia coli (ATCC 25922); assay type: cell-based
Protocol: (§2) Minimum inhibition concentrations (MICs) were determined against Escherichia coli (ATCC 25922), Staphylococcus aureus (ATCC 25923), Klebsiella pneumoniae (ATCC 10031) and Pseudomonas aeruginosa (ATCC 27853). Also clinical strains of E. coli, K. pneumoniae, E. cloacae, P. aeruginosa, Serratia marcescens, Proteus mirabilis, S. pneumoniae, Acinetobacter baumannii, A. johnsonii and S. aureus were used for MICs assays. Additionally, clinical strains of yeast including Candida albicans, C. glabrata, C. parapsilosis and C. quillermondiae were used. The susceptibility of these microorganisms to Chain peptides were determined using micro broth dilution assay. Colonies of the respective microorganism from Muller Hinton (MH) agar plates incubated overnight were suspended in MH broth media and final concentration of microorganism was adjusted to 5.0×10^5 cfu/ml. An aliquot of 10 μl of each Chain peptide, or gentamicin, tetracycline as reference antibiotics were added in differing concentrations along with 90 μl of bacterial suspension to 96 well polypropylene plates and incubated at 37° C. for 20 to 24 hours. Concentrations of Chain peptides and reference antibiotics ranged from 0.125 to 128 μg/ml and the MICs were recorded as the lowest concentration with no visual growth of bacteria. Similarly, antifungal MICs were tested in Potato dextrose broth.

[5] = system: Staphylococcus aureus (ATCC 25923); assay type: cell-based
Protocol: as §2

[6] = system: Pseudomonas aeruginosa (ATCC 27853); assay type: cell-based
Protocol: as §2

[7] = system: Klebsiella pneumoniae (ATCC 10031); assay type: cell-based
Protocol: as §2

[8] = system: Pseudomonas aeruginosa (ATCC 27853); assay: Radial diffusion assay (RDA) against P. aeruginosa; assay type: cell-based; conditions: Peptides 50 μg; Gentamycin 5 μg; diameter including the wells
Protocol: as §1

[9] = system: Escherichia coli, Staphylococcus aureus, Klebsiella pneumoniae and Pseudomonas aeruginosa; assay: Radial diffusion assay, summary over the bacteria tested; assay type: cell-based; conditions: Gentamicin 5 μg
Protocol: The radial diffusion assay (RDA) was carried out as described by Andersen et al. (2010). Briefly, 30 ml of 1/10 Muller-Hinton broth (MHB) supplemented with 1% agarose and 5.0×10^5 CFU/ml S. aureus or E. coli or K. pneumoniae, P. aeruginosa cells was poured into a single-well omnitray (Nunc) and overlaid with a TSP 96-well plate. One hundred μg of each synthesized peptide was tested. The peptides were also tested against Fusarium oxysporum and Verticillium dahliae, for which 1/3 potato dextrose agarose was used. To test the synergistic effect of peptides, each peptide was mixed in equimolar concentrations. Mix1 (met1-12), Mix2 (met3, 4 and 5), Mix3 (met 8, 9 and 10), Mix 4 (met11, 12) and Mix5 (8, 9, 10, 11, 12) were prepared and tested against E. coli and S. aureus. Gentamicin and vancomycin were included as positive controls for bacteria and amphotericin B was used as the control for fungi.

## CC(C)C[C@@H](NC(=O)[C@@H](CCCCN)NC(=O)[C@@H](CCCCN)NC(=O)[C@@H](Cc1ccccc1)NC(=O)[C@@H](CC(C)C)NC(=O)[C@@H](Cc1c[nH]c2ccccc12)NC(=O)[C@@H](CCCNC(=N)N)NC(=O)[C@@H](Cc1c[nH]c2ccccc12)NC(=O)[C@@H](CCCCN)NC(=O)[C@@H](CCCNC(=N)N)NC(=O)[C@H](N)CCCCN)C(=O)O [Chain310D] (H-[dK][dR][dK][dW][dR][dW][dL][dF][dK][dK][dL]-OH)
S. aureus COL (MRSA)
  MIC against MRSA strains along with Ertapenem, D-peptide: 0.03 µg/mL

## Gentamicin [reference compound]
[1]
  Inhibition zone, Escherichia coli: 22 mm
[2]
  Inhibition zone, Staphylococcus aureus: 24 mm
[3]
  Inhibition zone, Klebsiella pneumoniae: 22 mm
[4]
  Minimum inhibitory concentration, Escherichia coli (ATCC 25922): 1 µg/mL
[5]
  Minimum inhibitory concentration, Staphylococcus aureus (ATCC 25923): 0.25 µg/mL
[6]
  Minimum inhibitory concentration, Pseudomonas aeruginosa (ATCC 27853): 0.25 µg/mL
[7]
  Minimum inhibitory concentration, Klebsiella pneumoniae (ATCC 10031): 0.25 µg/mL
[8]
  Inhibition zone, Pseudomonas aeruginosa: 24 mm
[9]
  zone of inhibition over the four bacteria: 22-24 mm
